Test [1] concerns the target human GLP-1 receptor (Homo sapiens, UniProt P43220). The test is described as follows: In vitro functional potency, CRE luciferase reporter, whole BHK cells (hGLP-1R). The test is classed as cell-based. As to conditions: BHK CRE luc2P hGLP-1R cells. On the set-up: expressed in transfected cells; host or cells: BHK (parent line BHKTS13), clone BHK CRE luc2P hGLP-1R. Put shortly:
(§1)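 Potencies are replicate means (n≥2) from non-linear log(agonist) vs response fits of CRE-driven luminescence. Cells were overnight-plated BHK CRE luc2P lines transfected with human GIPR or GLP-1R, 5000/well.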

In test [2] the target is T1, human GIP receptor (Homo sapiens, UniProt P48546).
T1 construct: expressed in transfected cells; host or cells: BHK (parent line BHKTS13), clone BHK CRE luc2P hGIPR
T1 sequence (P48546 22-466): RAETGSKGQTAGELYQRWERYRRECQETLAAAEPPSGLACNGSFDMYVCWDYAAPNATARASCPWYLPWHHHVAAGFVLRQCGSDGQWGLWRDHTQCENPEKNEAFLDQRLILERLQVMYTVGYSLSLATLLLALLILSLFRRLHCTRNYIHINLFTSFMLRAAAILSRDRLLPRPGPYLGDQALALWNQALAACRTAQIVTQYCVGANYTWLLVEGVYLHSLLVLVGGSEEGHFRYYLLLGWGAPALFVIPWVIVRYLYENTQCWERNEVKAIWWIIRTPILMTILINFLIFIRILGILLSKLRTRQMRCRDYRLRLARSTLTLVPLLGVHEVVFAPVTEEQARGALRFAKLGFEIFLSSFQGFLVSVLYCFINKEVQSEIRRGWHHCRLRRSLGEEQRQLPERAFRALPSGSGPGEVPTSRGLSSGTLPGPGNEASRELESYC
As to the kind of experiment: In vitro functional potency, CRE luciferase reporter, whole BHK cells (hGIPR). The test is classed as cell-based. To be noted: BHK CRE luc2P hGIPR cells. An outline of the steps: as §1
For orientation: A reporter such as luciferase makes a cellular process visible.

[3] abbreviates: 0% HSA, read-out: hGLP-1R, CRE Luc 0% HSA EC50.
[4] abbreviates: hGLP-1R, CRE Luc 1% HSA EC50, 1% HSA.
Setting [5] is: 0% HSA, read-out: hGIPR, CRE Luc 0% HSA EC50.
The mark [6] stands for this setting: hGIPR, CRE Luc 1% HSA EC50, 1% HSA.

Like-named read-outs stand apart in the source and are kept apart here. Starred links: 1 amine or outer side, 2 acyl side, 3 side chain; linkers in the order of their positions; H or OH if unused. Non-standard residues stand in square brackets, D forms with d. Residues, ends and D or L forms follow the SMILES beside them. Groups on a side chain read outwards from the residue. *: point of attachment. C18 diacid = O=C(O)CCCCCCCCCCCCCCCCC(=O)*; γGlu = O=C(O)[C@H](CCC(=O)[*:2])N[*:1]; εLys = N[C@@H](CCCCN[*:1])C(=O)[*:2]; AEEA = NCCOCCOCC(=O)O; Aib = CC(C)(N)C(=O)O

Sequence of human GLP-1 receptor (P43220 24-463): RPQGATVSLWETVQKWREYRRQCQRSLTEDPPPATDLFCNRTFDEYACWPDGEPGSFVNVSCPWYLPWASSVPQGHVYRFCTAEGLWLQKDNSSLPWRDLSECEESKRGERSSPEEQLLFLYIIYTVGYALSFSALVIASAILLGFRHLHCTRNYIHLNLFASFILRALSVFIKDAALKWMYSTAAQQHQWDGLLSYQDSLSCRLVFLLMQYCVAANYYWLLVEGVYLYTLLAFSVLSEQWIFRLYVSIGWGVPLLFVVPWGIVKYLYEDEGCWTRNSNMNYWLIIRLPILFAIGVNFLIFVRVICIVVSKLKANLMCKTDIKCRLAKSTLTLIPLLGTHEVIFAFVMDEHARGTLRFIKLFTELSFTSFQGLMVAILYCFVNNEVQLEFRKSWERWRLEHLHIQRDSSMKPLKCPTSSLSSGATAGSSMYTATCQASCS

As for `CC[C@H](C)[C@H](NC(=O)[C@H](Cc1ccccc1)NC(=O)[C@H](CCC(=O)O)NC(=O)[C@H](CCCNC(=N)N)NC(=O)[C@H](C)NC(=O)[C@H](C)NC(=O)[C@H](CCC(N)=O)NC(=O)[C@H](CCCCNC(=O)COCCOCCNC(=O)COCCOCCNC(=O)CC[C@H](NC(=O)CCCCCCCCCCCCCCCCC(=O)O)C(=O)O)NC(=O)[C@H](CCC(=O)O)NC(=O)[C@H](CC(C)C)NC(=O)[C@H](CC(C)C)NC(=O)[C@@H](NC(=O)[C@H](CO)NC(=O)[C@H](Cc1ccc(O)cc1)NC(=O)[C@H](CC(=O)O)NC(=O)[C@H](CO)NC(=O)[C@@H](NC(=O)[C@H](Cc1ccccc1)NC(=O)[C@@H](NC(=O)CNC(=O)[C@H](CCC(=O)O)NC(=O)C(C)(C)NC(=O)[C@@H](N)Cc1ccc(O)cc1)[C@@H](C)O)[C@@H](C)O)[C@@H](C)CC)C(=O)N[C@@H](CC(N)=O)C(=O)N[C@@H](Cc1c[nH]c2ccccc12)C(=O)N[C@@H](CC(C)C)C(=O)N[C@@H](CC(C)C)C(=O)N[C@@H](C)C(=O)NCC(=O)NCC(=O)N1CCC[C@H]1C(=O)N[C@@H](CO)C(=O)N[C@@H](CO)C(=O)NCC(=O)N[C@@H](C)C(=O)N1CCC[C@H]1C(=O)N1CCC[C@H]1C(=O)N1CCC[C@H]1C(=O)N[C@@H](CO)C(=O)O` [Compound 35] (H-Y[Aib]EGTFTSDYSILLEK([AEEA-AEEA-γGlu-C18 diacid])QAAREFINWLLAGGPSSGAPPPS-OH), the EC50 – broadly, the concentration giving half of the maximal effect – in test [1] (setting [3]) came to 0.003 nM; in test [1] (setting [4]), 0.413 nM; in test [2] (setting [5]), 0.0052 nM; in test [2] (setting [6]), 0.303 nM.
`CC[C@H](C)[C@H](NC(=O)[C@H](Cc1ccccc1)NC(=O)[C@H](CCC(=O)O)NC(=O)[C@H](CCCNC(=N)N)NC(=O)[C@H](C)NC(=O)[C@H](C)NC(=O)[C@H](CCC(N)=O)NC(=O)[C@H](CCCCNC(=O)COCCOCCNC(=O)COCCOCCNC(=O)CC[C@H](NC(=O)CCCCCCCCCCCCCCCCC(=O)O)C(=O)O)NC(=O)[C@H](CCC(=O)O)NC(=O)[C@H](CC(C)C)NC(=O)[C@@H](NC(=O)[C@@H](NC(=O)[C@H](CO)NC(=O)[C@H](Cc1ccc(O)cc1)NC(=O)[C@H](CC(=O)O)NC(=O)[C@H](CO)NC(=O)[C@@H](NC(=O)[C@H](Cc1ccccc1)NC(=O)[C@@H](NC(=O)CNC(=O)[C@H](CCC(=O)O)NC(=O)C(C)(C)NC(=O)[C@@H](N)Cc1ccc(O)cc1)[C@@H](C)O)[C@@H](C)O)[C@@H](C)CC)[C@@H](C)CC)C(=O)N[C@@H](CC(N)=O)C(=O)N[C@@H](Cc1c[nH]c2ccccc12)C(=O)N[C@@H](CC(C)C)C(=O)N[C@@H](CC(C)C)C(=O)N[C@@H](C)C(=O)NCC(=O)NCC(=O)N1CCC[C@H]1C(=O)N[C@@H](CO)C(=O)N[C@@H](CO)C(=O)NCC(=O)N[C@@H](C)C(=O)N1CCC[C@H]1C(=O)N1CCC[C@H]1C(=O)N1CCC[C@H]1C(=O)N[C@@H](CO)C(=O)O` [Compound 36] (H-Y[Aib]EGTFTSDYSIILEK([AEEA-AEEA-γGlu-C18 diacid])QAAREFINWLLAGGPSSGAPPPS-OH): the EC50 in test [1] (setting [3]) was 0.0047 nM; in test [1] (setting [4]), 0.414 nM; in test [2] (setting [5]), 0.0055 nM; in test [2] (setting [6]) it was 0.356 nM.
`CC[C@H](C)[C@H](NC(=O)[C@H](Cc1ccccc1)NC(=O)[C@H](CCCCNC(=O)[C@@H](N)CCCCNC(=O)[C@@H](N)CCCCNC(=O)CC[C@H](NC(=O)CCCCCCCCCCCCCCCCC(=O)O)C(=O)O)NC(=O)[C@H](CCCNC(=N)N)NC(=O)[C@H](C)NC(=O)[C@H](C)NC(=O)[C@H](CCC(N)=O)NC(=O)[C@H](CCC(=O)O)NC(=O)[C@H](CCC(=O)O)NC(=O)[C@H](CC(C)C)NC(=O)[C@H](Cc1ccc(O)cc1)NC(=O)[C@@H](NC(=O)[C@H](CO)NC(=O)[C@H](Cc1ccc(O)cc1)NC(=O)[C@H](CC(=O)O)NC(=O)[C@H](CO)NC(=O)[C@@H](NC(=O)[C@H](Cc1ccccc1)NC(=O)[C@@H](NC(=O)CNC(=O)[C@H](CCC(=O)O)NC(=O)C(C)(C)NC(=O)[C@@H](N)Cc1ccc(O)cc1)[C@@H](C)O)[C@@H](C)O)[C@@H](C)CC)C(=O)N[C@@H](CC(N)=O)C(=O)N[C@@H](Cc1c[nH]c2ccccc12)C(=O)N[C@@H](CC(C)C)C(=O)N[C@@H](CC(C)C)C(=O)N[C@@H](C)C(=O)NCC(=O)NCC(=O)N1CCC[C@H]1C(=O)N[C@@H](CO)C(=O)N[C@@H](CO)C(=O)NCC(=O)N[C@@H](C)C(=O)N1CCC[C@H]1C(=O)N1CCC[C@H]1C(=O)N1CCC[C@H]1C(=O)N[C@@H](CO)C(=O)O` [Compound 37] (H-Y[Aib]EGTFTSDYSIYLEEQAARK([εLys-εLys-γGlu-C18 diacid])FINWLLAGGPSSGAPPPS-OH): the concentration giving a half-maximal response (EC50) in test [1] (setting [3]) is 0.0027 nM; in test [1] (setting [4]), 0.0946 nM; in test [2] (setting [5]), 0.0112 nM; in test [2] (setting [6]), 0.298 nM.
For `CC[C@H](C)[C@H](NC(=O)[C@H](Cc1ccccc1)NC(=O)[C@H](CCC(=O)O)NC(=O)[C@H](CCCNC(=N)N)NC(=O)[C@H](C)NC(=O)[C@H](C)NC(=O)[C@H](CCCCNC(=O)[C@@H](N)CCCCNC(=O)[C@@H](N)CCCCNC(=O)CC[C@H](NC(=O)CCCCCCCCCCCCCCCCC(=O)O)C(=O)O)NC(=O)[C@H](CCC(=O)O)NC(=O)[C@H](CCC(=O)O)NC(=O)[C@H](CC(C)C)NC(=O)[C@H](Cc1ccc(O)cc1)NC(=O)[C@@H](NC(=O)[C@H](CO)NC(=O)[C@H](Cc1ccc(O)cc1)NC(=O)[C@H](CC(=O)O)NC(=O)[C@H](CO)NC(=O)[C@@H](NC(=O)[C@H](Cc1ccccc1)NC(=O)[C@@H](NC(=O)CNC(=O)[C@H](CCC(=O)O)NC(=O)C(C)(C)NC(=O)[C@@H](N)Cc1ccc(O)cc1)[C@@H](C)O)[C@@H](C)O)[C@@H](C)CC)C(=O)N[C@@H](CC(N)=O)C(=O)N[C@@H](Cc1c[nH]c2ccccc12)C(=O)N[C@@H](CC(C)C)C(=O)N[C@@H](CC(C)C)C(=O)N[C@@H](C)C(=O)NCC(=O)NCC(=O)N1CCC[C@H]1C(=O)N[C@@H](CO)C(=O)N[C@@H](CO)C(=O)NCC(=O)N[C@@H](C)C(=O)N1CCC[C@H]1C(=O)N1CCC[C@H]1C(=O)N1CCC[C@H]1C(=O)N[C@@H](CO)C(=O)O` [Compound 38] (H-Y[Aib]EGTFTSDYSIYLEEK([εLys-εLys-γGlu-C18 diacid])AAREFINWLLAGGPSSGAPPPS-OH), the EC50 worked out at 0.0031 nM in test [1] (setting [3]), 0.259 nM in test [1] (setting [4]), 0.0124 nM in test [2] (setting [5]) and 0.815 nM in test [2] (setting [6]).
For the compound `CC[C@H](C)[C@H](NC(=O)[C@H](Cc1ccccc1)NC(=O)[C@H](CCCCNC(=O)[C@@H](N)CCCCNC(=O)[C@@H](N)CCCCNC(=O)CC[C@H](NC(=O)CCCCCCCCCCCCCCCCC(=O)O)C(=O)O)NC(=O)[C@H](CCCNC(=N)N)NC(=O)[C@H](C)NC(=O)[C@H](C)NC(=O)[C@H](CCC(N)=O)NC(=O)[C@H](CCC(=O)O)NC(=O)[C@H](CCC(=O)O)NC(=O)[C@H](CC(C)C)NC(=O)[C@H](CC(C)C)NC(=O)[C@@H](NC(=O)[C@H](CO)NC(=O)[C@H](Cc1ccc(O)cc1)NC(=O)[C@H](CC(=O)O)NC(=O)[C@H](CO)NC(=O)[C@@H](NC(=O)[C@H](Cc1ccccc1)NC(=O)[C@@H](NC(=O)CNC(=O)[C@H](CCC(=O)O)NC(=O)C(C)(C)NC(=O)[C@@H](N)Cc1ccc(O)cc1)[C@@H](C)O)[C@@H](C)O)[C@@H](C)CC)C(=O)N[C@@H](CC(N)=O)C(=O)N[C@@H](Cc1c[nH]c2ccccc12)C(=O)N[C@@H](CC(C)C)C(=O)N[C@@H](CC(C)C)C(=O)N[C@@H](C)C(=O)NCC(=O)NCC(=O)N1CCC[C@H]1C(=O)N[C@@H](CO)C(=O)N[C@@H](CO)C(=O)NCC(=O)N[C@@H](C)C(=O)N1CCC[C@H]1C(=O)N1CCC[C@H]1C(=O)N1CCC[C@H]1C(=O)N[C@@H](CO)C(=O)O` [Compound 39] (H-Y[Aib]EGTFTSDYSILLEEQAARK([εLys-εLys-γGlu-C18 diacid])FINWLLAGGPSSGAPPPS-OH), the EC50 turned out to be 0.0082 nM in test [1] (setting [3]), 0.135 nM in test [1] (setting [4]), 0.0284 nM in test [2] (setting [5]) and 0.365 nM in test [2] (setting [6]).

Source of the values: US20220177538A1, “CO-AGONISTS AT GLP-1 AND GIP RECEPTORS SUITABLE FOR ORAL DELIVERY” (Novo Nordisk A/S, priority 2020, published 2022).
